Assay results published in patent US20240261434A1, “PRODUCTS AND METHODS FOR TREATING MUSCULAR DYSTROPHY” (priority 2020, published 2024).

Columns and labels:
Type in all cases: in vivo, mouse
Dup2 mice [1] = assay: Quantification of centronucleation of myofibers (H&E) in Dup2 mice; settings: adult Dup2 mice, tail vein, 3 months post-injection
Description: (§1) To induce muscle injury for Evans blue dye (EBD) analysis, a treadmill exercise program was used. In the first week, four month old mice were trained three times on a treadmill at 10° inclination, running as follows: 0 m/min for 2 min, 5 m/min for 5 min, 10 m/min for 15 min, and 12 m/min for 5-10 min. In the following three weeks (3×/week), mice ran on the treadmill at 2 m/min for 30 min. Before mice euthanasia, the treadmill was used at the same inclination at 5 m/min for 5 min. Following this initial warming up, the speed was increased to +1 m/min until exhaustion. EBD solution (10 mg/ml in PBS) was filtered and injected intraperitoneally (IP) into mice after the last treadmill exercise, and mice were sacrificed 24 hrs later. For analysis, muscle sections were stained with α-laminin to distinguish myofibers, and the percentage of positive Evans blue fibers (labeled in red) were then quantified using ImageJ software. For quantification of centronucleation, H&E staining was performed using standard technique, and fiber counting was performed manually using ImageJ. For both analyses, three sections were processed and counted for each animal.
(§2) H&E staining was performed using standard protocol. Quantification of both centronucleation and Evans blue dye (EBD) was performed manually using ImageJ. Three sections were processed and counted for each animal.

[2] = qPCR quantification of viral vector genomes (biodistribution) in muscles of Dup2 mice; settings: adult Dup2 mice, tail vein, 3 months post-injection
Description: Physical titer determination was determined based on degradation of non-encapsidated DNA following digestion of viral capsids. Released encapsidated DNA was quantified by qPCR to determine the DNAase Resistant Particle (DRP) titer. The DRP titer (also referred to as vector genomes [vg]) were determined for scAAV9.U7.ACCA or scAAV1.U7-ACCA products using real-time quantitative PCR (qPCR) using dilutions of a linearized plasmid standard containing U7 amplicon as assay standards. The DRP quantitative PCR (qPCR) assay involves serial dilution of the test sample (10^−2 to 10^−5) and sequential digestion with DNase I and Proteinase K, followed by qPCR analysis. DNA detection was accomplished using sequence specific primers targeting a primer/probe combination specific to the construct sequence (probe: 5′-[…]-3′ (SEQ ID NO: 4); Fw primer: 5′-agctcctatgttgttaTCTAGAG-3′ (SEQ ID NO: 5); Rv primer: 5′-[…]-3′ (SEQ ID NO: 6)) and amplified using a fluorescently tagged probe hybridizing to the U7 amplicon. Titration of the encapsidated viral genome were performed using quantitative PCR-based titration method runned on a Prism 7500 Taqman detector system (PE Applied Biosystems).
All tissues and organs for qPCR/Biodistribution studies were placed into sterile tubes, snap-frozen in liquid nitrogen, and kept at <−70° C. qPCR analyses were performed on samples at 1, 3 and 6 months post-injection. 300 ul DNA lysis buffer (0.05M Tris-HCl pH 8, 0.1M NaCl, 0.1M EDTA, 1% SDS) plus 7.5 ul proteinase K were added to sections and incubated at 55° C. overnight. DNA was quantified and 25 ng of DNA was run in triplicate. The same qPCR primers and probe used for vector titration were used to perform the tissue biodistribution qPCR studies. Data were represented as normalized copy number per 1 ug DNA.

utrophin = assay: Western blot quantification of utrophin in muscles of Dup2 mice; settings: adult Dup2 mice, tail vein, 3 months post-injection
Description: (§3) 150 μl of this lysis buffer was used for 100 mg of tissue. This solution was then put on ice for 30min, and then tissue was lysed using a metal bead (1 min at 30 Hz, TissueLyser II, Qiagen). These last two steps were repeated, and then the lysate was centrifuged at 14000 g for 20min at 4° C. The supernatant was mixed with a classical 4× Laemmli buffer and boiled for 5 min at 100° C. 50-150 μg of protein were run on a precast 3-8% Tris-Acetate gel (NuPage, Life Science) for 16 h at 80V (4° C.). Using a nitrocellulose membrane, gels were transferred overnight at 300 mA using a cooling device. […] All antibodies were diluted in half Odyssey blocking buffer (Licor®) and half Tris buffered saline with Tween (TBST) (Sigma-Aldrich). Following secondary incubation, 5×5 min with 0.1% Tween washes were performed followed by a ddH2O rincing. Both IRDye@ signals were simultaneously scanned using the Odyssey® CLx (LI-COR). The signals for both dystrophin, utrophin and α-actinin were quantified using ImageJ.

DMD exon 2 = assay: RT-PCR quantification of DMD exon 2 skipping (Dup2, WT, Del2 transcripts) in muscles of Dup2 mice; settings: adult Dup2 mice, tail vein, 3 months post-injection
Description: Total RNA was isolated from tissue samples and analyzed by reverse transcription (RT) followed by PCR. […] For each sample, 1 μg of total RNA was used to generate cDNA by RT-PCR using random hexamer primers according to the manufacturer's protocol (Thermo Scientific, Ferk1672) and then used for a single PCR of 35 cycles using 1 μg of RNA and a mixture of random hexamer and oligo(dT) for each RT reaction. mRNA was then amplified via primers specific to the DMD 5′UTR and the exon 3-4 junction as follows.
Following electrophoresis, PCR products were electrophoresed on a 2% agarose gel and imaged using a Gel Logic 200 Imaging System (Kodak). Quantification of Dup2, WT or Del2 transcript was performed using ImageJ (an open source platform for scientific image analysis), and each band plotted in Prism (GraphPad) as a percentage of the overall dystrophin transcript. The images were then used to quantify the relative amount of each transcript using ImageJ software 14. Using the “Gel” function of ImageJ, a box was drawn in each lane around the area where the three possible transcripts would be. A histogram of each sample was then generated and the area under the curve was measured. The sum of the area under the three peaks were added together and then individual peak area was measured as a percentage of the total.

Dup2 mice [3] = assay: Evans blue dye (EBD) positive fibers after exhaustive treadmill exercise in Dup2 mice; settings: adult Dup2 mice, tail vein
Description: as §1, §2

dystrophin = assay: Western blot / immunoblot quantification of dystrophin in muscles of Dup2 mice; settings: for Western blot quantification: % of dystrophin: percent of WT, adult Dup2 mice, tail vein, 3 months post-injection
Description: as §3
With some experiments, 25×40 μm thick sections of cryopreserved tissues were used for western blotting to quantify amount of restored dystrophin protein. Extracted protein was run on 3-8% Tris-Acetate protein gels and visualized using specific primary antibodies against dystrophin or α-actinin the corresponding Licor secondary antibodies IRDye 680 or IRDye 800 (as set out above). Blots were imaged using the Licor Odyssey CLx and quantified using ImageJ.
Steel beads were added to the tissue, which was homogenized using the Tissuelyser II (Qiagen) for 2 min at a rate of 30/sec. Lysates were then incubated on ice and spun down; the supernatant was removed and stored at −80═ C. until immunoblotting, and the cell debris was discarded. For immunoblotting, 50 μg C57BL/6 muscle tissue protein or 150 μg Dup2 muscle tissue protein was loaded with a loading dye (1× laemmli) on a 3-8% Tris Acetate gel (Life Technologies, EA0378BOX). […] The membrane was scanned on the Odyssey CLx and imaged using Image Studio 14. Single color channel images were using Image Studio and then imported into ImageJ for quantification. For each channel, a box was drawn in each lane around the protein band using the “Gel” function in ImageJ. A histogram of each sample was then generated and the area under the curve was measured. Dystrophin was normalized to α-actinin by dividing the area of the dystrophin band by the area of the α-actinin band for each sample. If the same sample was run on multiple immunoblots, the median was taken to represent that particular sample. The C57BL/6 measurement was determined by taking the mean of all wild type samples. Both treated Dup2 and control Dup2 measurements were reported as a percentage of the wild type (n≥3).

[4] = system: tibialis anterior (TA) muscle; assay: Force generation and protection from eccentric contractions, tibialis anterior of Dup2 mice; set-up: Eccentric contraction: % force decrease: scale not given here; settings: tail vein adult Dup2 mice
Description: Physiologic studies were conducted on TA muscles from 12 week old mice that had been treated with an intramuscular injection of 3.1×10^11 vg at 8 weeks (N≥5 limbs). For systemic studies, the mice were 20-21 weeks old following 12 weeks of treatment (N≥12 limbs). The force study procedure was conducted using a modified version of Hakim's procedure (Hakim et al., J Appl. Physiol. (1985) 2011; 110:1656-1663; Wein et al., Nat. Med. 2014; 20:992-1000). Initial anesthetization of mice was conducted by giving an intraperitoneal injection of a cocktail containing five times their weight (i.e., the weight of the mouse) of 25 mg/mL ketamine and twice their weight of 2.5 mg/ml xylazine. […]
The resting force was set to between 3-4 g for a 10 minute equilibrium period. The TA muscle was then stimulated at the optimal length (Lo, mm) and active tetanic muscle force was recorded to give the absolute force measurement using the Lab View-based DMC program (Aurora Scientific). […] The cross-sectional area measured as mass (g)/(muscle density×ratio of fiber length×Lo) where muscle density is 1.06 mg/mm^3 and the ratio of fiber length in the TA is 0.6 (Burkholder et al., J Morphol 1994; 221:177-190). […] Statistical significance was assessed using a Kruskal-Wallace test assuming nonparametric data in the GraphPad Prism (version 6.03 for Windows, GraphPad Software, San Diego California USA). […]

C[C@H]1C[C@@H]2[C@H]([C@@H](O)C[C@@]3(C)[C@H]2CC[C@]3(O)C(=O)COC(=O)CCC(=O)[O-])[C@@]2(C)C=CC(=O)C=C12.[Na+] [PDN, 6α-methylprednisolone 21-hemisuccinate sodium salt]
% of centronucleation (Dup2 mice [1]; DIA): 68.55%
% of centronucleation (Dup2 mice [1]; TA): 71.12%
viral vector genome quantification ([2]; DIA): 17 vector/ug DNA
viral vector genome quantification ([2]; GAS): 15 vector/ug DNA
viral vector genome quantification ([2]; HEART): 188 vector/ug DNA
viral vector genome quantification ([2]; TA): 39 vector/ug DNA
viral vector genome quantification ([2]; TRI): 50 vector/ug DNA
Western blot quantification: ratio of utrophin/a-actinin (utrophin; DIA): 0.6
Western blot quantification: ratio of utrophin/a-actinin (utrophin; GAS): 0.2
Western blot quantification: ratio of utrophin/a-actinin (utrophin; HEART): 0.5
Western blot quantification: ratio of utrophin/a-actinin (utrophin; TA): 0.3
Western blot quantification: ratio of utrophin/a-actinin (utrophin; TRI): 0.4
RT-PCR quantification: % of Del2 transcript (DMD exon 2; DIA): 0%
RT-PCR quantification: % of Dup2 transcript (DMD exon 2; DIA): 97.7%
RT-PCR quantification: % of WT transcript (DMD exon 2; DIA): 2.3%
RT-PCR quantification: % of Del2 transcript (DMD exon 2; GAS): 4.3%
RT-PCR quantification: % of Dup2 transcript (DMD exon 2; GAS): 86%
RT-PCR quantification: % of WT transcript (DMD exon 2; GAS): 9.6%
RT-PCR quantification: % of Del2 transcript (DMD exon 2; HEART): 0%
RT-PCR quantification: % of Dup2 transcript (DMD exon 2; HEART): 98.3%
RT-PCR quantification: % of WT transcript (DMD exon 2; HEART): 1.6%
RT-PCR quantification: % of Del2 transcript (DMD exon 2; TA): 0%
RT-PCR quantification: % of Dup2 transcript (DMD exon 2; TA): 100%
RT-PCR quantification: % of WT transcript (DMD exon 2; TA): 0%
RT-PCR quantification: % of Del2 transcript (DMD exon 2; TRI): 0%
RT-PCR quantification: % of Dup2 transcript (DMD exon 2; TRI): 98.3%
RT-PCR quantification: % of WT transcript (DMD exon 2; TRI): 1.7%
% of EBD positive fibers (Dup2 mice [3]; DIA): 12.31%
% of EBD positive fibers (Dup2 mice [3]; GAS): 3.04%
% of EBD positive fibers (Dup2 mice [3]; TA): 8.14%
% of EBD positive fibers (Dup2 mice [3]; TRI): 2.57%
Western blot quantification: % of dystrophin (dystrophin; DIA): 9.2%
dystrophin expression (dystrophin; Dup2 mice, PDN alone): does not induce dystrophin expression
Western blot quantification: % of dystrophin (dystrophin; GAS): 2.1%
Western blot quantification: % of dystrophin (dystrophin; HEART): 13.7%
Western blot quantification: % of dystrophin (dystrophin; TA): 4.83%
Western blot quantification: % of dystrophin (dystrophin; TRI): 4.8%
Absolute force: Force (mN) [4]: 1401 mN
Eccentric contraction: % force decrease ([4]; repeated eccentric contractions): 0.52
